Results reported in patent publication US20240024273A1, “TOPICAL ADMINISTRATION OF 2-(DIETHYLAMINO)ETHYL 2-(4-ISOBUTYLPHENYL)PROPRIONATE FOR TREATMENT OF DISEASES” (TECHFIELDS PHARMA CO., LTD., priority 2020, published 2024).

Legend:
[1] = test system: osteoarthritis of the knee; test: Second Phase 2 study: Investigator's assessment of response to therapy (IART); type: in vivo, human; conditions: Week 12; for IART: Good and Very good / IART: Poor and Very Poor / IART: fair: first 130 subjects; for IART, Good and Very good / IART, Poor and Very Poor / IART, fair: all subjects
Description: 4.9.3. Exploratory Efficacy Endpoints: • 1. Investigator's global assessment of response to therapy of the target knee at 2, 4, 8, and 12 weeks of treatment; • 2. Change from Baseline over time in overall WOMAC (VAS) score for the target knee after the treatment is stopped for 2 weeks.

[2] = test system: osteoarthritis of the knee; test: Second Phase 2 study: Subject Global Impression of Change (SGIC); type: in vivo, human; conditions: Week 12; for Subject's satisfaction rate (SGIC good and very good) / SGIC: Good and Very good / SGIC: Poor and Very Poor / SGIC: fair: first 130 subjects; for SGIC, Good and Very good / SGIC, Poor and Very Poor / SGIC, fair: all subjects
Description: 4.9.2. Secondary Efficacy Endpoints: • 1. Change from Baseline in the WOMAC (VAS) pain subscale score for the target knee at 2, 8, and 12 weeks of treatment; • 2. Change from Baseline in the WOMAC (VAS) stiffness subscale scores for the target knee and WOMAC (VAS) functional ability subscale scores at 2, 4, 8, and 12 weeks of treatment; • 3. Change from Baseline in the overall WOMAC (VAS) score at 2, 4, 8, and 12 weeks of treatment; • 4. Subject's global assessment of disease status of the target knee at 2, 4, 8, and 12 weeks of treatment; • 5. Subject's global assessment of response to therapy of the target knee at 2, 4, 8, and 12 weeks of treatment; • 6. Amount of rescue medication (acetaminophen) consumed per day for target knee pain.

[3] = Oral Ibuprofen 3 × 400 mg, n = 48

CCN(CC)CCOC(=O)C(C)c1ccc(CC(C)C)cc1 (centres unmarked) [2-(diethylamino)ethyl 2-(4-isobutylphenyl)propionate]
IART: Good and Very good ([1]; 4.375 mg/knee BID (n = 23)): 39.1%
IART: Poor and Very Poor ([1]; 4.375 mg/knee BID (n = 23)): 4.3%
IART: fair ([1]; 4.375 mg/knee BID (n = 23)): 56.5%
IART: Good and Very good ([1]; 8.75 mg/knee BID (n = 24)): 37.5%
IART: Poor and Very Poor ([1]; 8.75 mg/knee BID (n = 24)): 12.5%
IART: fair ([1]; 8.75 mg/knee BID (n = 24)): 50.0%
IART: Good and Very good ([1]; 17.5 mg/knee BID (n = 19)): 57.9%
IART: Poor and Very Poor ([1]; 17.5 mg/knee BID (n = 19)): 5.3%
IART: fair ([1]; 17.5 mg/knee BID (n = 19)): 36.8%
IART, Good and Very good ([1]; 4.375 mg/knee BID, n = 49): 40.8%
IART, Poor and Very Poor ([1]; 4.375 mg/knee BID, n = 49): 10.2%
IART, fair ([1]; 4.375 mg/knee BID, n = 49): 49.0%
IART, Good and Very good ([1]; 8.75 mg/knee BID, n = 54): 50.0%
IART, Poor and Very Poor ([1]; 8.75 mg/knee BID, n = 54): 13.0%
IART, fair ([1]; 8.75 mg/knee BID, n = 54): 37.0%
IART, Good and Very good ([1]; 17.5 mg/knee BID, n = 52): 61.5%
IART, Poor and Very Poor ([1]; 17.5 mg/knee BID, n = 52): 3.8%
IART, fair ([1]; 17.5 mg/knee BID, n = 52): 34.6%
Subject's satisfaction rate (SGIC good and very good) ([2]; 17.5 mg/knee BID): 73.7%
SGIC: Good and Very good ([2]; 4.375 mg/knee BID (n = 23)): 39.1%
SGIC: Poor and Very Poor ([2]; 4.375 mg/knee BID (n = 23)): 4.3%
SGIC: fair ([2]; 4.375 mg/knee BID (n = 23)): 56.5%
SGIC: Good and Very good ([2]; 8.75 mg/knee BID (n = 24)): 37.5%
SGIC: Poor and Very Poor ([2]; 8.75 mg/knee BID (n = 24)): 16.7%
SGIC: fair ([2]; 8.75 mg/knee BID (n = 24)): 45.8%
SGIC: Good and Very good ([2]; 17.5 mg/knee BID (n = 19)): 73.7%
SGIC: Poor and Very Poor ([2]; 17.5 mg/knee BID (n = 19)): 5.3%
SGIC: fair ([2]; 17.5 mg/knee BID (n = 19)): 21.1%
SGIC, Good and Very good ([2]; 4.375 mg/knee BID, n = 49): 32.7%
SGIC, Poor and Very Poor ([2]; 4.375 mg/knee BID, n = 49): 10.2%
SGIC, fair ([2]; 4.375 mg/knee BID, n = 49): 57.1%
SGIC, Good and Very good ([2]; 8.75 mg/knee BID, n = 54): 46.3%
SGIC, Poor and Very Poor ([2]; 8.75 mg/knee BID, n = 54): 16.7%
SGIC, fair ([2]; 8.75 mg/knee BID, n = 54): 37.0%
SGIC, Good and Very good ([2]; 17.5 mg/knee BID, n = 52): 61.5%
SGIC, Poor and Very Poor ([2]; 17.5 mg/knee BID, n = 52): 5.8%
SGIC, fair ([2]; 17.5 mg/knee BID, n = 52): 32.7%

CC(C)Cc1ccc(C(C)C(=O)O)cc1 (centres unmarked) [Ibuprofen, 2-(4-isobutylphenyl)propionic acid, reference compound]
IART: Good and Very good ([1]; oral, 3 x 400 mg (n = 20)): 50.0%
IART: Poor and Very Poor ([1]; oral, 3 x 400 mg (n = 20)): 25.0%
IART: fair ([1]; oral, 3 x 400 mg (n = 20)): 25.0%
IART, Good and Very good [1, 3]: 47.9%
IART, Poor and Very Poor [1, 3]: 8.3%
IART, fair [1, 3]: 43.8%
SGIC: Good and Very good ([2]; oral, 3 x 400 mg (n = 20)): 55.0%
SGIC: Poor and Very Poor ([2]; oral, 3 x 400 mg (n = 20)): 10.0%
SGIC: fair ([2]; oral, 3 x 400 mg (n = 20)): 35.0%
SGIC, Good and Very good [2, 3]: 47.9%
SGIC, Poor and Very Poor [2, 3]: 8.3%
SGIC, fair [2, 3]: 43.8%
Subject's satisfaction rate (SGIC good and very good) ([2]; oral 3×400 mg/day): 55%
